In ChEMBL document CHEMBL5365543, “Benzamidine Conjugation Converts Expelled Potential Active Agents into Antifungals against Drug-Resistant Fungi” (J Med Chem, 2023):
≈ marks a conversion by molar mass, not a printed value. Calls of active or inactive are those of the source. The rule behind the calls is not given here.

Legend:
Candida albicans [1] = test: Antifungal activity against wild-type Candida albicans SC5314 assessed as inhibition of fungal growth measured after 24 hrs by CLSI based microtiter plate analysis; type: functional; conditions: for MIC80: Candida albicans
Candida albicans [2] = test: Antifungal activity against clinical isolate Candida albicans YEM13 overexpressing efflux pump MdrL assessed as inhibition of fungal growth measured after 24 hrs by CLSI based microtiter plate analysis; type: functional
Candida albicans [3] = test: Antifungal activity against clinical isolate Candida albicans YEM15 overexpressing efflux pump CdrL and Cdr2 assessed as inhibition of fungal growth measured after 24 hrs by CLSI based microtiter plate analysis; type: functional
Candida albicans [4] = test: Antifungal activity against clinical isolate Candida albicans SCUPC2R14MPG2A harbouring UPC2 mutation overexpressing […] Erg11 assessed as inhibition of fungal growth measured after 24 hrs by CLSI based microtiter plate analysis; type: functional
Candida albicans [5] = test: Antifungal activity against clinical isolate Candida albicans SCMRRIR34MPG2A harbouring MRR1 mutation overexpressing efflux pump MdrL assessed as inhibition of fungal growth measured after 24 hrs by CLSI based microtiter plate analysis; type: functional
Candida albicans [6] = test: Antifungal activity against clinical isolate fluconazole-resistant Candida albicans DSY296 harbouring TAC1 mutation overexpressing efflux pump CdrL and Cdr2 assessed as inhibition of fungal growth measured after 24 hrs by CLSI based microtiter plate analysis; type: functional
Candida albicans [7] = test: Antifungal activity against clinical isolate fluconazole-resistant Candida albicans G5 harbouring MRR1 mutation overexpressing MdrL assessed as inhibition of fungal growth measured after 24 hrs by CLSI based microtiter plate analysis; type: functional
Candida albicans [8] = test: Antifungal activity against clinical isolate fluconazole-resistant Candida albicans Gu5 harbouring TAC1 mutation overexpressing efflux pump CdrL and Cdr2 assessed as inhibition of fungal growth measured after 24 hrs by CLSI based microtiter plate analysis; type: functional
Candida albicans [9] = test: Antifungal activity against clinical isolate fluconazole-resistant Candida albicans CA632 assessed as inhibition of fungal growth measured after 24 hrs by CLSI based microtiter plate analysis; type: functional
[Candida] auris [10] = Antifungal activity against clinical isolate fluconazole-resistant Candida auris CBS12774 assessed as inhibition of fungal growth measured after 24 hrs by CLSI based microtiter plate analysis; type: functional; conditions: Candidozyma auris
[Candida] auris [11] = Antifungal activity against clinical isolate fluconazole-resistant Candida auris CBS12776 assessed as inhibition of fungal growth measured after 24 hrs by CLSI based microtiter plate analysis; type: functional; conditions: Candidozyma auris
Nakaseomyces glabratus = test: Antifungal activity against clinical isolate fluconazole-resistant Candida glabrata CG2 assessed as inhibition of fungal growth measured after 24 hrs by CLSI based microtiter plate analysis; type: functional
Cryptococcus neoformans = test: Antifungal activity against clinical isolate fluconazole-resistant Cryptococcus neoformans H99 assessed as inhibition of fungal growth measured after 24 hrs by CLSI based microtiter plate analysis; type: functional
Candida tropicalis = test: Antifungal activity against clinical isolate fluconazole-resistant Candida tropicalis CT10 assessed as inhibition of fungal growth measured after 24 hrs by CLSI based microtiter plate analysis; type: functional
[12] = Drug accumulation in wild-type Candida albicans SC5314 at 50 microg/ml incubated for 3 hrs by HPLC analysis; type: ADME; conditions: dose 50 µg/ml
Candida albicans [13] = test: Induction of drug resistance in wild-type Candida albicans SC5314 assessed as change in MIC at 0.5 times of MIC measured after 30 passages by broth microdilution method; type: functional
[14] = Drug accumulation in wild-type Candida albicans SC5314 at 20 microg/ml incubated for 2 hrs by flow cytometery analysis; type: ADME; conditions: dose 20 µg/ml
[15] = Drug accumulation in Candida albicans SC5314 by confocal laser scanning microscopic analysis; type: ADME
Cell membrane = test: Disruption of membrane integrity in Candida albicans SC5314 at 16 to 32 microg/ml incubated for 1 hr by Sytox green staining based fluorescence method; type: subcellular; conditions: dose 16-32 µg/ml
[16] = Induction of hemolysis in mouse RBC cells at 2 to 32 microg/ml incubated for 60 mins by absorbance based analysis; type: toxicity, cell-based, Erythrocyte; conditions: red blood cells (erythrocytes), at 2 to 32 µg/mL, dose 2-32 µg/ml, read-out: Activity
Candida albicans [17] = test: Antifungal activity against Candida albicans assessed as inhibition of fungal growth measured after 24 hrs by CLSI based microtiter plate analysis; type: functional
[18] = Drug accumulation in Candida albicans TOM70-GFP-CAI4 at 20 microg/ml incubated for 30 mins by confocal laser scanning microscopic analysis; type: ADME; conditions: 0.5 h, dose 20 µg/ml
[19] = Drug localization in mitochondria of Candida albicans SC5314 incubated for 30 mins by MitoTracker dye based confocal laser scanning microscopic analysis; type: ADME; conditions: 0.5 h
[20] = Drug accumulation in Candida albicans YEM13 expressing efflux pump MdrL at 20 microg/ml incubated for 2 hrs by flow cytometery analysis; type: ADME; conditions: dose 20 µg/ml
[21] = Drug accumulation in Candida albicans YEM15 expressing efflux pump CdrL and Cdr2 at 20 microg/ml incubated for 2 hrs by flow cytometery analysis; type: ADME; conditions: dose 20 µg/ml
Candida albicans [22] = test: microbe, parasite or virus in culture; type: functional; conditions: DSY654, time 24 hrs
Description: Antifungal activity against efflux pump-deficient Candida albicans DSY654 assessed as inhibition of fungal growth measured after 24 hrs by CLSI based microtiter plate analysis

Candida albicans [23] = test: Drug accumulation in Candida albicans SC5314 measured per 10^8 cells incubated for 3 hrs by HPLC analysis; type: functional, organism-based
[24] = Toxicity in BALB/c mouse infected with clinical isolate fluconazole-resistant Candida albicans Gu5 assessed as animal survival at 6 mg/kg, ip administered on day 1 and day 3 post fungal infection measured after 4 days; type: organism-based; conditions: in vivo, 96 h, time 4 day
Candida albicans [25] = test: Antifungal activity against clinical isolate fluconazole-resistant Candida albicans Gu5 infected in BALB/c mouse assessed as fold reduction in kidney fungal burden at 6 mg/kg, ip administered on day 1 and day 3 post fungal infection measured after 7 days; type: functional; conditions: time 7.0 day
[26] = Induction of DNA damage in human HBE cells assessed as increase in gammaH2AX level at 2 to 8 microg/ml by Western blotting analysis; type: toxicity, cell-based; conditions: dose 2-8 µg/ml
[27] = Induction of drug resistance in wild-type Candida albicans SC5314 assessed as change in MIC at 0.5 times of MIC measured after 30 passages by broth microdilution method (reference value: 2 microg/ml); type: functional
[28] = Induction of DNA damage in human HBE cells assessed as increase in gammaH2AX level at 8 microg/ml by Western blotting analysis; type: toxicity, cell-based; conditions: dose 8 µg/ml

SMILES: C[C@H]1[C@H](C)CC[C@]2(C(=O)OCCCOc3ccc(C(=N)N)cc3)CC[C@]3(C)C(=CC[C@@H]4[C@@]5(C)CC[C@H](O)C(C)(C)[C@@H]5CC[C@]43C)[C@H]12
- MIC (Candida albicans [1]): inactive
- MIC80 (Candida albicans [1]; SC5314, 24 h, read-out: MIC80): 4 µg/mL (≈ 6.32 µM)
- MIC80 (Candida albicans [2]): 4 µg/mL (≈ 6.32 µM)
- MIC80 (Candida albicans [3]): 4 µg/mL (≈ 6.32 µM)
- MIC80 (Candida albicans [4]): 4 µg/mL (≈ 6.32 µM)
- MIC80 (Candida albicans [5]): 4 µg/mL (≈ 6.32 µM)
- MIC80 (Candida albicans [6]): 4 µg/mL (≈ 6.32 µM)
- MIC80 (Candida albicans [7]): 4 µg/mL (≈ 6.32 µM)
- MIC80 (Candida albicans [8]): 4 µg/mL (≈ 6.32 µM)
- MIC80 (Candida albicans [9]): 4 µg/mL (≈ 6.32 µM)
- MIC80 ([Candida] auris [10]): 8 µg/mL (≈ 12.6 µM)
- MIC80 ([Candida] auris [11]): 4 µg/mL (≈ 6.32 µM)
- MIC80 (Nakaseomyces glabratus): 4 µg/mL (≈ 6.32 µM)
- MIC80 (Cryptococcus neoformans): 4 µg/mL (≈ 6.32 µM)
- MIC80 (Candida tropicalis): 4 µg/mL (≈ 6.32 µM)
- Drug uptake [12]: Active
- Activity (Candida albicans [13]): Active

SMILES: CCN(CC)c1ccc2c(-c3ccccc3C(=O)N3CCN(Cc4cn(CCCOc5ccc(C(=N)N)cc5)nn4)CC3)c3ccc(=[N+](CC)CC)cc-3oc2c1.[Cl-]
- Drug uptake [14]: Active
- Drug uptake [15]: Active
- Activity (Cell membrane): inactive
- hemolysis at 1 h [16]: < 2%
- MIC (Candida albicans [17]): > 128 µg/mL
- Drug uptake [18]: Active
- Drug uptake [19]: Active
- Drug uptake [20]: Active
- Drug uptake [21]: Active

SMILES: N=C(N)c1ccc(OCCCOC(=O)c2ccccc2Nc2cccc(C(F)(F)F)c2)cc1
- MIC80 (Candida albicans [1]; SC5314, read-out: MIC80): 8 µg/mL (≈ 17.5 µM)
- Drug uptake [12]: Active
- Activity (Candida albicans [13]): Active

SMILES: C=C1C[C@@]23CC[C@@H]4[C@](C)(CN)CCC[C@@]4(C)[C@@H]2CC[C@]1(O)C3
- MIC80 (Candida albicans [22]): 32 µg/mL (≈ 105 µM)
- MIC80 (Candida albicans [1]; SC5314, read-out: MIC80): > 256 µg/mL
- Drug uptake (Candida albicans [23]): inactive

SMILES: C=C1C[C@@]23CC[C@H]4[C@@](C)(CCC[C@@]4(C)C(=O)O)[C@@H]2CC[C@]1(O)C3 [STEVIOL]
- MIC (Candida albicans [22]): 256 µg/mL (≈ 804 µM)
- MIC80 (Candida albicans [22]): 256 µg/mL (≈ 804 µM)
- MIC80 (Candida albicans [1]; SC5314, read-out: MIC80): > 256 µg/mL
- Drug uptake (Candida albicans [23]): inactive

SMILES: C=C1C(=O)[C@@]2(C)CC[C@@H]3[C@@]1(CC[C@H]1[C@@]3(C)CCC[C@@]1(C)C(=O)OCCC[P+](c1ccccc1)(c1ccccc1)c1ccccc1)C2.[I-]
- Activity [24]: Toxic
- Activity (Candida albicans [25]): inactive

SMILES: CCN(CC)c1ccc2c(-c3ccccc3C(=O)O)c3ccc(=[N+](CC)CC)cc-3oc2c1.[Cl-] [RHODAMINE]
- Drug uptake [15]: Not Active

SMILES: C[C@@]12CC[C@@H]3[C@](CC[C@H]4[C@@]3(C)CCC[C@@]4(C)C(=O)OCCCOc3ccc(C(=N)N)cc3)(CC1=O)C2
- MIC (Candida albicans [1]): inactive
- MIC80 (Candida albicans [1]; SC5314, 24 h, read-out: MIC80): 4 µg/mL (≈ 8.09 µM)
- MIC80 (Candida albicans [2]): 4 µg/mL (≈ 8.09 µM)
- MIC80 (Candida albicans [3]): 4 µg/mL (≈ 8.09 µM)
- MIC80 (Candida albicans [4]): 4 µg/mL (≈ 8.09 µM)
- MIC80 (Candida albicans [5]): 8 µg/mL (≈ 16.2 µM)
- MIC80 (Candida albicans [6]): 4 µg/mL (≈ 8.09 µM)
- MIC80 (Candida albicans [7]): 8 µg/mL (≈ 16.2 µM)
- MIC80 (Candida albicans [8]): 4 µg/mL (≈ 8.09 µM)
- MIC80 (Candida albicans [9]): 4 µg/mL (≈ 8.09 µM)
- MIC80 ([Candida] auris [10]): 8 µg/mL (≈ 16.2 µM)
- MIC80 ([Candida] auris [11]): 8 µg/mL (≈ 16.2 µM)
- MIC80 (Nakaseomyces glabratus): 8 µg/mL (≈ 16.2 µM)
- MIC80 (Cryptococcus neoformans): 4 µg/mL (≈ 8.09 µM)
- MIC80 (Candida tropicalis): 4 µg/mL (≈ 8.09 µM)
- Drug uptake [12]: Active
- Activity [26]: Non-Toxic

SMILES: CCN(CC)c1ccc2cc(C(=O)OCCCCCCCCOc3ccc(C(=N)N)cc3)c(=O)oc2c1
- Drug uptake [19]: Active

SMILES: C=C1C[C@@]23CC[C@H]4[C@@](C)(CCC[C@@]4(C)C(=O)OCC[N+](C)(CC)CC)[C@@H]2CC[C@]1(O)C3.[I-]
- MIC80 (Candida albicans [22]): 32 µg/mL
- MIC80 (Candida albicans [1]; SC5314, read-out: MIC80): > 256 µg/mL
- Drug uptake (Candida albicans [23]): inactive

SMILES: OC(Cn1cncn1)(Cn1cncn1)c1ccc(F)cc1F [FLUCONAZOLE]
- MIC80 (Candida albicans [22]): 0.5 µg/mL (≈ 1.63 µM)
- MIC80 (Candida albicans [1]; SC5314, 24 h, read-out: MIC80): 2 µg/mL (≈ 6.53 µM)
- MIC80 (Candida albicans [2]): 64 µg/mL (≈ 209 µM)
- MIC80 (Candida albicans [3]): 64 µg/mL (≈ 209 µM)
- MIC80 (Candida albicans [4]): > 128 µg/mL
- MIC80 (Candida albicans [6]): > 128 µg/mL
- MIC80 (Candida albicans [7]): > 128 µg/mL
- MIC80 (Candida albicans [8]): > 128 µg/mL
- MIC80 (Candida albicans [9]): > 128 µg/mL
- MIC80 ([Candida] auris [10]): > 128 µg/mL
- MIC80 ([Candida] auris [11]): > 128 µg/mL
- MIC80 (Nakaseomyces glabratus): 64 µg/mL (≈ 209 µM)
- MIC80 (Cryptococcus neoformans): 2 µg/mL (≈ 6.53 µM)
- MIC80 (Candida tropicalis): > 128 µg/mL
- MIC [27]: 128 µg/mL
- Activity [28]: Non-Toxic
